Measured values reported in patent US5227466A, “Insulin receptor binding site” (City of Hope, priority 1988, dated 1993).
Where a SMILES comes first, the peptide text is derived from it.

Target: ^125 I-insulin (Homo sapiens, UniProt P01308)
Assay: 125I-insulin binding to water suspension of the peptide, centrifugation
Method: To test for insulin binding, a water suspension of the peptide was incubated at room temperature with a tracer of ^125 I-insulin followed by simple centrifugation. […] The apparent dissociation constant was ~6×10^-7 M. Non-specific binding was negligible.

Sequence of ^125 I-insulin (P01308 25-54 limits assumed): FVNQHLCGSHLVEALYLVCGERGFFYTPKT
Sequence of ^125 I-insulin (P01308 90-110 limits assumed): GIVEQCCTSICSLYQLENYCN

In the case of CC[C@H](C)[C@H](NC(=O)[C@@H](NC(=O)[C@H](CC(C)C)NC(=O)[C@H](C)NC(=O)[C@H](Cc1ccc(O)cc1)NC(=O)[C@H](CC(N)=O)NC(=O)[C@H](Cc1ccccc1)NC(=O)[C@H](Cc1ccccc1)NC(=O)[C@H](CC(C)C)NC(=O)[C@@H](N)CCCNC(=N)N)C(C)C)C(=O)N[C@@H](Cc1ccccc1)C(=O)N[C@@H](CCC(=O)O)C(=O)N[C@@H](CCSC)C(=O)N[C@H](C(=O)N[C@@H](Cc1c[nH]cn1)C(=O)N[C@@H](CC(C)C)C(=O)N[C@@H](CCCCN)C(=O)N[C@@H](CCC(=O)O)C(=O)O)C(C)C [Sequence I] (H-RLFFNYALVIFEMVHLKE-OH), the Kd (displacement of ^125 I-insulin by unlabelled insulin (FIG. 4), read-out: apparent dissociation constant) is reported as about 600 nM and the “fraction of ^125 I-insulin tracer bound by the peptide” value (water suspension of the peptide, room temperature, centrifugation) is reported as “up to 30%”.
